Blank lines part the entries; values can stand above or below the compound they belong to.
Legend:
[1] = target: T1, Sodium channel protein type 5 subunit alpha (Homo sapiens, UniProt Q14524); test: Inhibition of Nav1.5 (unknown origin) expressed in HEK293 cells by IonWorks patch-clamp method; type: cell-based
[2] = target: T2, Sodium channel protein type 9 subunit alpha (Homo sapiens, UniProt Q15858); test: Inhibition of Nav1.7 (unknown origin) expressed in HEK293 cells by PatchXpress method; type: cell-based
[3] = target: T2, Sodium channel protein type 9 subunit alpha; test: Inhibition of human Nav1.7 expressed in HEK cells by whole-cell patch-clamp technique; type: cell-based, HEK293
[4] = target: T2, Sodium channel protein type 9 subunit alpha; test: Inhibition of human Nav1.7 expressed in HEK cells by patch-clamp method; type: cell-based, HEK293
[5] = target: T2, Sodium channel protein type 9 subunit alpha; test: Inhibition of human Nav1.7 expressed in HEK293 cells by FLIPR method; type: cell-based
[6] = target: T2, Sodium channel protein type 9 subunit alpha; test: Inhibition of human Nav1.7 expressed in HEK293 cells […] by QPatch method; type: cell-based
[7] = target: T2, Sodium channel protein type 9 subunit alpha; test: Inhibition of Nav1.7 (unknown origin)
[8] = target: T2, Sodium channel protein type 9 subunit alpha; test: Inhibition of human Nav1.7 expressed in HEK293 cells by electrophysiology method; type: cell-based
[9] = target: T1, Sodium channel protein type 5 subunit alpha; test: Inhibition of Nav1.5 (unknown origin)
HEK293 = test: Selectivity ratio of IC50 for human Nav1.5 to IC50 for human Nav1.7 expressed in HEK293 cells; type: cell-based

T1 sequence (Q14524 whole entry): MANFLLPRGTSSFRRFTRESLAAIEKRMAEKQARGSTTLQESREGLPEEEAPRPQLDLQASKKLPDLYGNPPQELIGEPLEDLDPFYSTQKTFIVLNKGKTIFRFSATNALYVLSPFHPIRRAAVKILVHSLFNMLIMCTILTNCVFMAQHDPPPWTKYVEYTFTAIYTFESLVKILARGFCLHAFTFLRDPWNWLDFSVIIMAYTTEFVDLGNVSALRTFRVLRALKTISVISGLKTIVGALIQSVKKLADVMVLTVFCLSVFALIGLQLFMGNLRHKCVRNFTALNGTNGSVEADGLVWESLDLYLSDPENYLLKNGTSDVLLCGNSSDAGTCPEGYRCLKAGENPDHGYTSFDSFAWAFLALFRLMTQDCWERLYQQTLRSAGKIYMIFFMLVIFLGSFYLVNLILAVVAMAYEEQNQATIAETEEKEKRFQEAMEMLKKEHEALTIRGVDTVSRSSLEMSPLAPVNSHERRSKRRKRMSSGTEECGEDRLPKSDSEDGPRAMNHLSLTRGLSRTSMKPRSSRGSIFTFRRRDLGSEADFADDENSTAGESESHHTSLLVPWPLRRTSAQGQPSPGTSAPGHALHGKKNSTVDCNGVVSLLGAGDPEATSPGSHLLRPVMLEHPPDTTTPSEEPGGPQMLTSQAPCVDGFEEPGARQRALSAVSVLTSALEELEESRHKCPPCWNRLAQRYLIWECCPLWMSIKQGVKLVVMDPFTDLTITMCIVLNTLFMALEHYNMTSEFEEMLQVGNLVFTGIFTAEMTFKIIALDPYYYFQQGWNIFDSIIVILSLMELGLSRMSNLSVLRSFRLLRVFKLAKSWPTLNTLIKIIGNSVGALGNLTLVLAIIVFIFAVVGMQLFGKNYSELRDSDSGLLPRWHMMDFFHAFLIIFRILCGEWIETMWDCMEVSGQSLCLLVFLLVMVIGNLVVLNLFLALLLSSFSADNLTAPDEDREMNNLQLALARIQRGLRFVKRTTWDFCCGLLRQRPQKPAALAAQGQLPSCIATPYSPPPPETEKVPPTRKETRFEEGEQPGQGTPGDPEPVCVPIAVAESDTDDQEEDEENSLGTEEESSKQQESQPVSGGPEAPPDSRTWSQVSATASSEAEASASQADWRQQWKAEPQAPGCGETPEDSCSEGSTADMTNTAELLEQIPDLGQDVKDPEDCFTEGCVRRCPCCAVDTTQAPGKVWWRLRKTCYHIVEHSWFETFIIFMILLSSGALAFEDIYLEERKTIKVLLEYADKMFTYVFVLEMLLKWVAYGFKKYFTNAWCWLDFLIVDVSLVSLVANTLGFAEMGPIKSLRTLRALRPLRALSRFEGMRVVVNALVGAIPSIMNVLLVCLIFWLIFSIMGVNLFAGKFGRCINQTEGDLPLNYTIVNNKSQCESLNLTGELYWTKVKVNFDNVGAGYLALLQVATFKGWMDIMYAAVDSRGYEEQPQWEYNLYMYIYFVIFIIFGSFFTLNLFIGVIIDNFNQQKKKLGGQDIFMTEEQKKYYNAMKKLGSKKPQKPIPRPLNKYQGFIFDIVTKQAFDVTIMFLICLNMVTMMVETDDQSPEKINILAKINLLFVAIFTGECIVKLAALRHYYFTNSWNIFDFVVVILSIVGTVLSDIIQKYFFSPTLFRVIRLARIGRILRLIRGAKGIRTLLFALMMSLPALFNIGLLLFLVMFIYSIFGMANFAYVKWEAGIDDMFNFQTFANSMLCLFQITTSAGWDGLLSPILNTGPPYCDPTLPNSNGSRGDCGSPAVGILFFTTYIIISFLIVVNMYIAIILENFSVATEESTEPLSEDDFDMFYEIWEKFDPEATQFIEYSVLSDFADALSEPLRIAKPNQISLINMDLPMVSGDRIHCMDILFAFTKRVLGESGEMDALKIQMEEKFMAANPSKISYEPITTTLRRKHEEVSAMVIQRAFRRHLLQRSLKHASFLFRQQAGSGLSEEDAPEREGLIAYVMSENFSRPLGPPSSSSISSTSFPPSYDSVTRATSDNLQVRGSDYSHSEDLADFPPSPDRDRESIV
T2 sequence (Q15858 whole entry): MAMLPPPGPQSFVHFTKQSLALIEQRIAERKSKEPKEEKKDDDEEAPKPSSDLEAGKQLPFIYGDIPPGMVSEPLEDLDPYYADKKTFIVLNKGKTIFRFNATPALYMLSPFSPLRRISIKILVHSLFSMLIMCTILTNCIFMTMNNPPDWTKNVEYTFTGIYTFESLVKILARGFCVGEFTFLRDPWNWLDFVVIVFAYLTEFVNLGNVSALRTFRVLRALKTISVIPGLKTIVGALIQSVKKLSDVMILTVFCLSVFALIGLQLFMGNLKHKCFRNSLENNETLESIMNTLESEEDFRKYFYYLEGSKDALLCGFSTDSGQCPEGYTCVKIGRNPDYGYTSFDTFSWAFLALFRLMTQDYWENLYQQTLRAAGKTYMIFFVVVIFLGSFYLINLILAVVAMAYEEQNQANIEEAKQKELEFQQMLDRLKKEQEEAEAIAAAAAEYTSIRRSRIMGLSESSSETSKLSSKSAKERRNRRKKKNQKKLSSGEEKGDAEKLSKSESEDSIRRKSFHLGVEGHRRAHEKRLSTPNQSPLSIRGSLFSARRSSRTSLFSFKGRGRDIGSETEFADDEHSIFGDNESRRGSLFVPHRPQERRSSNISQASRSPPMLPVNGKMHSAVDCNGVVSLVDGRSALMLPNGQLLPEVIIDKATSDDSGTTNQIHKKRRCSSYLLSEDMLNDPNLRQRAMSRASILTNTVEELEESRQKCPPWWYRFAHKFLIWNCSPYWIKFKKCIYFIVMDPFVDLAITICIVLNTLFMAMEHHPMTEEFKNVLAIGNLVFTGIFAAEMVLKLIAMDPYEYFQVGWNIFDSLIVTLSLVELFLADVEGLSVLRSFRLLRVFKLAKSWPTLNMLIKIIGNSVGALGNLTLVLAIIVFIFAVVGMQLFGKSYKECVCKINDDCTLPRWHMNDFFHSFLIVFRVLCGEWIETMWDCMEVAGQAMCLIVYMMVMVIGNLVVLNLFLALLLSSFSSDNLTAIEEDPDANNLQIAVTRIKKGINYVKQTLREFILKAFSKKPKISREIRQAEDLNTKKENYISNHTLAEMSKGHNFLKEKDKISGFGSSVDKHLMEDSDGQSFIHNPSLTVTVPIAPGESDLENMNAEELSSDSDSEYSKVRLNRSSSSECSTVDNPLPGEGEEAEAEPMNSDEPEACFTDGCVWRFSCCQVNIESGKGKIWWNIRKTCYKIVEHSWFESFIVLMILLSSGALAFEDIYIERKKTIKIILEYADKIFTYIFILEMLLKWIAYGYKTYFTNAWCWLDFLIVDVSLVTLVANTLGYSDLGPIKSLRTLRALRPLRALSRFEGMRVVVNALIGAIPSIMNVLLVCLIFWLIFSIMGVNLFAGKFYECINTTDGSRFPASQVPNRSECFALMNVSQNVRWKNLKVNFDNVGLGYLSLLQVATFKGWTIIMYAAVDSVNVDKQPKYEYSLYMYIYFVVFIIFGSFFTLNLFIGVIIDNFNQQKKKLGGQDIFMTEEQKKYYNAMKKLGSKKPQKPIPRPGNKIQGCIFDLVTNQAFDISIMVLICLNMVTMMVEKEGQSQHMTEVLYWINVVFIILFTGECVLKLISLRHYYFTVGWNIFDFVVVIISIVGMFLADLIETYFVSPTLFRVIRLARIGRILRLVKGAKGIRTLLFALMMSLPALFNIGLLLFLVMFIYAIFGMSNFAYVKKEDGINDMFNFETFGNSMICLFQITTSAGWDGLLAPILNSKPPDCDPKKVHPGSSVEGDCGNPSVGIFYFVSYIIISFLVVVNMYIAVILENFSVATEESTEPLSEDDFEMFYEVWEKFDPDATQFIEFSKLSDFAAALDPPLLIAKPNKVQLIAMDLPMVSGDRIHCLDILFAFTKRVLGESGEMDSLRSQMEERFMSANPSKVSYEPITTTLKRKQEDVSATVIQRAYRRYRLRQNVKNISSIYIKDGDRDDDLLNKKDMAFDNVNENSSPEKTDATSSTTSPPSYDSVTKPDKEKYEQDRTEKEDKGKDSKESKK

IC50 [2]: 38 nM
SMILES: Cn1cc(-c2ccc(C(F)(F)F)cc2-c2cn[nH]c2)c2ccc(S(=O)(=O)Nc3ncns3)cc21
IC50 [1]: > 10000 nM

IC50 [3]: 35 nM
SMILES: CCOc1ncccc1-c1cc(C(=O)NS(C)(=O)=O)ccc1Oc1ccc(Cl)c(C(F)(F)F)c1

IC50 [4]: < 2000 nM
SMILES: COc1cc(C(=O)N2CCC3(CC2)c2ccc(C(F)(F)F)n2CCN3C)ccc1OC(C)C

IC50 [5]: 620 nM
SMILES: Cc1oc2nc(-c3ccccc3Cl)nn2c1CNCCc1ccccc1Cl

IC50 [6]: 398 nM
SMILES: Cc1ccc(OCC(C)C)c(-c2cccc([C@H]3CC[C@]4(CCN(C)C4=O)N3)c2)c1

IC50 [5]: 237 nM
SMILES: CN(C)c1ccc(C(=O)NC2CC23CCN(c2ccccc2)CC3)c2ccccc12 (centres undefined)

IC50 [5]: 1150 nM
SMILES: O=C(NCC1CCCCN1)c1ccc(Oc2cc(C(F)(F)F)cc(C(F)(F)F)c2)cc1 (centres undefined)

IC50 [4]: < 2000 nM
SMILES: CCOC1CC(c2scnc2C)OC2(CCN(C(=O)c3ccc(OC(C)C)c(C)c3)CC2)C1 (centres undefined)

Ki [8]: 27 nM
IC50 [5]: 67 nM
SMILES: NC(=O)c1cnc(-c2ccc(Oc3cc(F)cc(Cl)c3)cc2)nc1[C@@H](O)CO

IC50 [3]: 130 nM
SMILES: CC1(COc2ccc(-n3nc(C4CC4)c4cc(C(=O)NS(C)(=O)=O)ccc43)cn2)CC1

Second part, the compound before the results:

SMILES: O=S(=O)(Nc1ncns1)N1CCc2c(cccc2-c2ccc(C(F)(F)F)cc2C2=CCNCC2)C1
IC50 [1]: > 10000 nM

SMILES: O=S(=O)(Nc1ncns1)c1cc(F)c(OC[C@@H]2CNCC[C@H]2c2ccc(Cl)cc2)cc1F
IC50 [7]: 3.3 nM

SMILES: COc1cc(C(=O)N2CCC3(CC2)CN(CC(F)F)CC(c2ccccn2)O3)ccc1OC(C)C (centres undefined)
IC50 [4]: < 2000 nM

SMILES: Nc1noc2ccc(-c3cc(Cl)ccc3Oc3cc(F)c(S(=O)(=O)Nc4ncns4)cc3F)cc12
IC50 [9]: > 1000 nM

SMILES: C[C@H](c1ccccc1C1(F)CNC1)n1c(=O)oc2cc(S(=O)(=O)Nc3nccs3)c(F)cc21
Ratio IC50 (HEK293): 5540

SMILES: CCCCCN1C(=O)COCC1c1cncc(-c2ccc(OC(F)(F)F)cc2)c1 (centres undefined)
IC50 [5]: 770 nM

SMILES: O=S(=O)(Nc1ncns1)c1ccc2c(c1)OCCN2c1ccc(C(F)(F)F)cc1Cl
IC50 [1]: > 10000 nM

Source: ChEMBL document CHEMBL3351765, “Recent progress in sodium channel modulators for pain” (Bioorg Med Chem Lett, 2014)
